Tests used:
Type in all cases: binding, human
[1] = system: antibodies to HIV-2; assay: Specificity ELISA (Example 12, Figure 3), HIV-2 antibody positive sera; conditions: 20 sera containing antibodies to HIV-2 but not to HIV-1 TMP gp41 (West Africans); positive O.D. above 0.150
[2] = system: sera from Swedish blood donors negative for HIV-1 and HIV-2 antibodies; assay: Specificity ELISA (Example 12, Figure 3), negative control sera; conditions: 20 negative control sera; positive O.D. above 0.150
Description: In the Figures forming a portion of the disclosure of this invention: • Figure 1 illustrates a portion of the STLV-IIImac TMP amino acid residue sequence. The sequence is shown from left to right and in the direction of amino-terminus to carboxy-terminus in a single-letter code. The residue positions have been numbered as illustrated from 1-33. • Figure 2 illustrates, in a manner similar to Figure 1, a portion of the amino acid residue sequence of the HIV-1 TMP and represent gp41 amino acid residues […] as described in Ratner et al., Nature, 313:277-283 (1985). However, for ease of discussion, those residue positions have been renumbered as illustrated from 1-32. • Figure 3 contains 2 panels illustrating antibody determinations using a diagnostic system of this invention to assay (a) 20 sera from individuals in Guinea-Bissau previously determined to have antibodies against HIV-related viruses (West Africans), (b) 20 sera from HIV-1-infected individuals and (c) 20 sera from blood donors without antibodies to HIV-1 or HIV-2. Sera were considered positive (closed symbols) when they produced optical density (O.D.) values above 0.150 (the mean O.D. of negative samples plus 6 standard deviations). Negative sera are represented by open symbols. […]

[3] = system: antibodies against HIV-2; assay: ELISA with STLV-III polypeptides p80 and p81, alone and in combination; conditions: two sera containing high titers of antibodies against HIV-2, diluted 1:10; 490nm
Protocol: Preliminary studies using two sera containing high titers of antibodies against HIV-2 were performed by ELISA using each of p80 and p81 alone and in combination. One hundred microliters (ul) of 0.01M NaHCO₃, pH 9.6, containing 1 microgram (ug) of either p80 or p81 or a combination (admixture) of 1 ug of p80 and 1 ug of p81 were admixed into the wells of Immunolon II microtiter plates (Dynatech, Alexandria, VA). The plates were then maintained for about 16 hours at 4 degrees C to permit the polypeptides to adsorb onto (coat) the walls of the wells. After removing the polypeptide coating solution by shaking, 300 ul of PBS containing 1% bovine serum albumin (BSA), 5mM benzamidine, 10 kilounits Aprotinin, 10ug/ml Trypsin Inhibitor, 10mM EACA, 0.5mM PMSF, 2mM EDTA and 10% glycerol were admixed into each well to block excess protein binding sites. […]
Two hundred ul of OPD substrate were then admixed into each well to form a developing-reaction admixture. After maintaining the developing-reaction admixture for 30 minutes at about 20 degrees C, 50 ul of 4N H₂SO₄ were admixed into each well to stop the developing-reaction, and the resulting solutions were assayed for absorbance at 490nm using a microtiter plate reader.

For AIEKYLEDQAQLNAWCAFRQVC [p80], the immunoreaction with sera [1] was “pronounced reactions”, the immunoreaction with sera [2] was “did not produce any substantial immunoreaction” and the absorbance values [3] was “greater than 1.1”.

— patent publication EP0309566B1, “STLV-III-RELATED POLYPEPTIDES, DIAGNOSTIC SYSTEMS AND ASSAY METHODS” (JOHNSON AND JOHNSON, priority 1987, dated 1994)
